Reference: publication PMC9191221 (Iranian Journal of Pharmaceutical Research : IJPR, 2022)
Where “and” joins values, the source holds several entries; their conditions need not be identical. Equal values may be shown once.

Biological target: EGFR^T790M (Homo sapiens, UniProt P00533, T790M)
Assay: EGFR-TK assay kit / ADP-Glo kinase assay
Type: biochemical
Conditions: tested in triplicate

Sequence of EGFR^T790M (P00533 25-1210 T790M): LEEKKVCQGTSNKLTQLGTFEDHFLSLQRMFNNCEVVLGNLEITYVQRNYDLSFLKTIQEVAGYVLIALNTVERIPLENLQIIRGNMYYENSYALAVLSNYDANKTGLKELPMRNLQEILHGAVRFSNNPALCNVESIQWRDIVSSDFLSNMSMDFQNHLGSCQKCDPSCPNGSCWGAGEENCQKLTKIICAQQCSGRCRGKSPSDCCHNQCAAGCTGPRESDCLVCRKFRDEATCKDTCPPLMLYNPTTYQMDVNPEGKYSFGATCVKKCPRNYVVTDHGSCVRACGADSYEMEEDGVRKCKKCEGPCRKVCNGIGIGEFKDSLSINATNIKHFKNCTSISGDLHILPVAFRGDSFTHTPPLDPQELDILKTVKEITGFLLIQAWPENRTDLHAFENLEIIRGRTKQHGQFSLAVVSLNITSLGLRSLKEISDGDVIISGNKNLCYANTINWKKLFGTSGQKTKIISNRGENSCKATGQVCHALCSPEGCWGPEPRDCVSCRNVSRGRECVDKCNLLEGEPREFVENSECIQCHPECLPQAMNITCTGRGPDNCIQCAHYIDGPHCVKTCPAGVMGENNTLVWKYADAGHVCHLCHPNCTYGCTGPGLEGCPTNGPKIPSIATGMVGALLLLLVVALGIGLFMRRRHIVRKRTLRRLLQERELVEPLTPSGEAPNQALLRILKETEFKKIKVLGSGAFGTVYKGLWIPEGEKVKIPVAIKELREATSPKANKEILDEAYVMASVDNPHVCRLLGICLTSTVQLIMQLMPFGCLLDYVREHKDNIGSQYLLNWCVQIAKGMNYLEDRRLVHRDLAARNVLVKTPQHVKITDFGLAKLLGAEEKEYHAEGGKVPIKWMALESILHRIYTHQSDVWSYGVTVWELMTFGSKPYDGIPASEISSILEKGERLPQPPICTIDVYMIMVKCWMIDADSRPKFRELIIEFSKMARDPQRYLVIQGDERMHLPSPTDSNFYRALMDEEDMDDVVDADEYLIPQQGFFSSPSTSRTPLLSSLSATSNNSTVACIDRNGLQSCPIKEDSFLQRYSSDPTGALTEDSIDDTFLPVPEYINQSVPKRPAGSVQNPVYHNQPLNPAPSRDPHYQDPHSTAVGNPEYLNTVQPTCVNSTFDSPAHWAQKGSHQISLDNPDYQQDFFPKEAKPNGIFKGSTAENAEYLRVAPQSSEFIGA

IC50: 0.37 nM and 1.37 nM
SMILES: O=c1nc(NCc2ccccc2Cl)[nH]c2ccc(Oc3ccccc3)cc12 [Compound 8b, 2-((2-Chlorobenzyl)amino)-6-phenoxyquinazolin-4(1H)-one]
